# Laboratory results published in patent US20030191144A1, “Compounds, compositions and methods for modulating beta-amyloid production” (Active Pass Pharmaceuticals, Inc., priority 2001, published 2003).
# Tests used:
# Assay type in all cases: cell-based
# [1] = test system: Aβ42 production and/or release from SM-4 cells; test: Aβ42 ELISA of culture media from SM-4 cells; conditions: 16 hrs
# Method: Cell Lines and Pharmacological Treatments. 293 EBNA cells (InVitrogen, Carlsbad, Calif.) stably transfected with Swedish mutant β-Amyloid Precursor Protein -695 (SM4 cells) were routinely maintained in DMEM supplemented with sodium pyruvate (1 mM) and 10% fetal bovine serum. Cells were seeded into poly-D-Lysine (SIGMA) coated 6-well plates at a density of 5-7×10^5 cells per well. Subsequently, the cells were rinsed in 1 ml of PBS and treated with 10-500 μM of pirinixic acid in serum-free/phenol red-free DMEM for 16 hours.
# (§1) Aβ Detection and Standardization. After the pharmacological treatment, the exposure media was collected and supplemented with 10% sample treatment buffer (40 mM sodium phosphate (pH 7.4), 40 mM triethanolamine, 0.1% Triton X-100, 200 mM NaCl, 2 mM EGTA, 0.1% Sodium azide), and assayed for either Aβ40 or Aβ42 by a calorimetric ELISA as per the manufacturer's protocol (Biosource International Inc, California). The cells were lysed in 0.1% Triton X-100 in PBS supplemented with 5 μM propridium iodide (Molecular Probes, Eugene, Oreg.) and incubated at 37° C. for 30 minutes prior to measuring fluorescence. Aβ40 and Aβ42 were standardized against propridium iodide fluorescence as a measure of total cell number. […]
# as §1, with “After” for “Aβ Detection and Standardization. After”
# After the pharmacological treatment, the exposure media was collected and supplemented with 10% sample treatment buffer (40 mM sodium phosphate (pH 7.4), 40 mM triethanolamine, 0.1% Triton X-100, 200 mM NaCl, 2 mM EGTA, 0.1% Sodium azide), and assayed for either Aβ40 or Aβ42 by a colorimetric ELISA as per the manufacturer's protocol (Biosource International Inc, California). The cells were lysed in 0.1% Triton X-100 in PBS supplemented with 5 μM propridium iodide (Molecular Probes, Eugene, Oreg.) and incubated at 37° C. for 30 minutes prior to measuring fluorescence. Aβ40 and Aβ42 were standardized against propridium iodide fluorescence as a measure of total cell number.
# [2] = test system: Aβ40 from human neuroblastoma cells (hDAT; SK-N-MC); test: Aβ40 ELISA, human neuroblastoma cells transiently transfected with APPsw; conditions: 200 μM, 24 hours
# Method: (§2) Human neuroblastoma cells (hDAT; SK-N-MC stably overexpression human dopamine transporter) were routinely maintained in DMEM supplemented with sodium pyruvate (1 mM) and 10% fetal bovine serum. […] Subsequently, 48 hours post-transfection the cells were rinsed with PBS and treated with vehicle (0.1% DMSO) or 100-200 μM pirinixic acid in serum free/phenol free DMEM for 24 hours. After the pharmacological treatment, the exposure media was collected and supplemented with 10% sample treatment buffer (40 mM sodium phosphate (pH 7.4), 40 mM triethanolamine, 0.1% Triton X-100, 200 mM NaCl, 2 mM EGTA, 0.1% Sodium azide), and assayed for either Aβ40 or AP42 by a calorimetric ELISA as per the manufacturer's protocol (Biosource International Inc, California). The cells were lysed in 0.1% Triton X-100 in PBS supplemented with 5 μM Propridium Iodide (Molecular probes, Eugene, Oreg.) and incubated at 37° C. for 30 minutes prior to measuring fluorescence. Secreted Aβ40 and Aβ42 levels were standardized against propridium iodide fluorescence as a measure of total cell number. Data are expressed as a percent of control and represent the mean±SD with n=11 and statistical significance determined by ANOVA with a Tukey's post hoc test at ***p<0.001.
# [3] = test system: Aβ42 from human neuroblastoma cells (hDAT; SK-N-MC); test: Aβ42 ELISA, human neuroblastoma cells transiently transfected with APPsw; conditions: 200 μM, 24 hours, p<0.001, n=11
# Method: as §2
smiles,measurement,setting,value
Cc1cccc(Nc2cc(Cl)nc(SCC(=O)O)n2)c1C [pirinixic acid],decrease in Aβ42,"[1]; 50 μM, p<0.001",15%
same,decrease in Aβ42,[1]; 500 μM,60%
same,effect on Aβ40,[2],without altering Aβ40
same,decrease in Aβ42,[3],40%
